Test results reported in patent US7189856B2 (priority 2001, dated 2007).
Structures can show the parent of a compound that is named as a salt.

Biological target: T1, human SSTR2 receptors (Homo sapiens, UniProt P30874)
T1 construct: expressed in transfected cells; host or cells: CHO-K1 cells
Experiment: inhibition of [125I] Somatostatin binding to human SSTR2 receptors expressed in CHO-K1 cells
Procedure: FIG. 1 illustrates the logarithmic concentration-response curves for inhibition of [^125I] […] Test compounds were tested in duplicate at all concentrations. The average percent inhibition of duplicate was used for plotting the displacement curves, fitted by non-linear regression.
FIG. 2 illustrates the logarithmic concentration-response curves for inhibition of [^125I] […] Test compounds were tested in duplicate at all concentrations. The average percent inhibition of duplicate was used for plotting the displacement curves, fitted by non-linear regression.

T1 sequence (P30874 whole entry): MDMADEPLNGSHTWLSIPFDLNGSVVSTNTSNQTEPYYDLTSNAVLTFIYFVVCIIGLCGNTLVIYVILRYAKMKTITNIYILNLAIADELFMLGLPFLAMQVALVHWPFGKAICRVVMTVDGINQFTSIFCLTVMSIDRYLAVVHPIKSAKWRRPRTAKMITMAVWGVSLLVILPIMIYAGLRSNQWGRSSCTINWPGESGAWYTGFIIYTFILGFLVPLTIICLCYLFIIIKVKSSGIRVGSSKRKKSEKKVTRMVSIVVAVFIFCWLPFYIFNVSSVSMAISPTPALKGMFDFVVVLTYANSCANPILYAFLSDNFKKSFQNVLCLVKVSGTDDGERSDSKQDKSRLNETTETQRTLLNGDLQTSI

| IC50 | Structure (SMILES) |
| --- | --- |
| 1.3 ± 0.183 nM | CN(C)C(=O)c1cc(S(=O)(=O)N2C(=O)N(C[C@@H]3CCC[C@H](CN)C3)C(=O)[C@@H]2Cc2c[nH]c3ccccc23)ccc1Oc1ccc(O)c(Cl)c1 (single isomer, unassigned) [Example 15b HCl salt] |
| 0.29 ± 0.0395 nM | CN(C)C(=O)c1cc(S(=O)(=O)N2C(=O)N(CC3CCC[C@@H](CN)C3)C(=O)[C@@H]2Cc2c[nH]c3ccccc23)ccc1Oc1ccc(O)c(Cl)c1 (single isomer, unassigned) [Example 15a HCl salt] |
